Here are results for 14 compounds from ChEMBL document CHEMBL4052735, “One-pot two-step facile synthesis of 2,3,4,5-tetra substituted dihydrooxazoles and their antimicrobial activity” (2017).

As usually defined, the MIC is the lowest concentration that inhibits growth of the organism. Broadly, the MBC is the lowest tested concentration that kills the bacteria rather than only halting them.

≈ marks a conversion by molar mass, not a printed value. Calls of active or inactive are those of the source. The rule behind the calls is not given here.

Common to all, as to assay type: functional
Test [1] concerns Phytophthora infestans. The test can be described thus: Antifungal activity against Phytophthora infestans after 48 to 72 hrs by disk diffusion method.
The test system of test [2] is Staphylococcus aureus. The test can be described thus: Antibacterial activity against Staphylococcus aureus after 24 hrs by visual and spectrophotometric analysis.
Test [3] has as its system Staphylococcus aureus. The test can be described thus: Bactericidal activity against Staphylococcus aureus after 24 hrs by visual and spectrophotometric analysis.
The subject of test [4] is Bacillus subtilis. The test can be described thus: Antibacterial activity against Bacillus subtilis after 24 hrs by visual and spectrophotometric analysis.
Test [5] relates to Bacillus subtilis. The test can be described thus: Bactericidal activity against Bacillus subtilis after 24 hrs by visual and spectrophotometric analysis.
Test [6] has as its system Escherichia coli. Nature of the test: Antibacterial activity against Escherichia coli after 24 hrs by visual and spectrophotometric analysis.
In test [7] the test system is Escherichia coli. The test can be described thus: Bactericidal activity against Escherichia coli after 24 hrs by visual and spectrophotometric analysis.
The test system of test [8] is Klebsiella pneumoniae. The test can be described thus: Antibacterial activity against Klebsiella pneumoniae after 24 hrs by visual and spectrophotometric analysis.
Test [9] relates to Klebsiella pneumoniae. Nature of the test: Bactericidal activity against Klebsiella pneumoniae after 24 hrs by visual and spectrophotometric analysis.
Test [10] relates to Staphylococcus aureus. The test can be described thus: Ratio of MBC to MIC against Staphylococcus aureus.
The subject of test [11] is Bacillus subtilis. The test can be described thus: Ratio of MBC to MIC against Bacillus subtilis.
Test [12] has as its system Escherichia coli. The test can be described thus: Ratio of MBC to MIC against Escherichia coli.
Test [13] concerns Klebsiella pneumoniae. Nature of the test: Ratio of MBC to MIC against Klebsiella pneumoniae.

In turn, `Oc1ccc(C2OC(c3ccccc3)=C(c3ccccc3)N2NC(=S)Nc2ccccc2)cc1` (configuration not stated) yielded an MIC in test [1] of 10 µg/mL (≈ 21.5 µM).
Still for that read-out and setting: to `COc1ccc(NC(=S)NN2C(c3ccccc3)=C(c3ccccc3)OC2c2ccc(O)cc2)cc1` (configuration not stated) belongs 16 µg/mL (≈ 32.3 µM); to `COc1ccc(C2OC(c3ccccc3)=C(c3ccccc3)N2NC(=S)Nc2ccc(C)cc2)cc1` (configuration not stated), 14 µg/mL (≈ 28.4 µM).
On to `Oc1ccc(C2OC(c3ccccc3)=C(c3ccccc3)N2NC(=S)Nc2ccccc2Cl)cc1` (configuration not stated), for which the values for the minimum inhibitory concentration (MIC) in test [2] and in [4] were 30 µg/mL (≈ 60 µM) and 40 µg/mL (≈ 80 µM), respectively. For the same compound, the minimal bactericidal concentration (MBC) in test [3] was found to be 50 µg/mL (≈ 100 µM); in test [5], 100 µg/mL (≈ 200 µM). In addition, the MIC result in [6] and in test [8] was “inactive” in each case. In addition, the MBC result in test [7] and in [9] was “inactive” throughout. Further, the figures for the Ratio in [10] and in [11] were 1.6 and 2.5, respectively.
Consider `Cc1ccc(NC(=S)NN2C(c3ccccc3)=C(c3ccccc3)OC2c2ccc(O)cc2)cc1` (configuration not stated), for which, in test [1], the minimal inhibitory concentration (MIC) is 14 µg/mL (≈ 29.2 µM).
Regarding `COc1ccc(C2OC(c3ccccc3)=C(c3ccccc3)N2NC(=S)Nc2ccccc2Cl)cc1` (configuration not stated), the MIC result in test [2], in test [4] and in [8] was “inactive” throughout. Besides, the MBC result in [3], in test [5] and in [9] was “inactive” each time. In [6], this compound yielded a minimum inhibitory concentration (MIC) of 25 µg/mL (≈ 48.6 µM). The compound also returned an MBC in test [7] of 50 µg/mL (≈ 97.3 µM). For the same compound, the Ratio in test [12] amounted to 2.
`Oc1ccc(C2OC(c3ccccc3)=C(c3ccccc3)N2NC(=S)Nc2ccc(Cl)cc2)cc1` (configuration not stated) returned an MIC in test [1] of 16 µg/mL (≈ 32 µM).
`COc1ccc(C2OC(c3ccccc3)=C(c3ccccc3)N2NC(=S)Nc2ccccc2OC)cc1` (configuration not stated): the results for the minimal inhibitory concentration (MIC) in [2] and in test [4] were 40 µg/mL (≈ 78.5 µM) and 30 µg/mL (≈ 58.9 µM), respectively. Also, the MBC in test [3] was 100 µg/mL (≈ 196 µM); in [5], 50 µg/mL (≈ 98.1 µM). For the same compound, the MIC result in [6] and in test [8] was “inactive” in each case. In addition, the MBC entry in [7] and in test [9] was “inactive” in each case. In addition, the results for the Ratio in [10] and in test [11] were 2.5 and 1.6, respectively.
`O=C(O)c1cn(C2CC2)c2cc(N3CCNCC3)c(F)cc2c1=O` [CIPROFLOXACIN]: the values for the MIC in test [2], in test [4] and in test [8] were 6.5 µg/mL (≈ 19.6 µM), 10 µg/mL (≈ 30.2 µM) and 6.25 µg/mL (≈ 18.9 µM), respectively. Also, the minimal bactericidal concentration (MBC) in [3] amounted to 12.5 µg/mL (≈ 37.7 µM); in test [5], 25 µg/mL (≈ 75.4 µM); in test [7] it was 25 µg/mL (≈ 75.4 µM); in test [9] it was 10.2 µg/mL (≈ 30.9 µM).
In the case of `COc1ccccc1NC(=S)NN1C(c2ccccc2)=C(c2ccccc2)OC1c1ccc(O)cc1` (configuration not stated), the MIC entry in [2], in test [4] and in [6] was “inactive” throughout. Further, the MBC result in [3], in [5] and in test [7] was “inactive” each time. The compound also had a minimal inhibitory concentration (MIC) in [8] of 25 µg/mL (≈ 50.4 µM). Besides, the MBC in test [9] worked out at 50 µg/mL (≈ 101 µM). In addition, the Ratio in [13] stood at 2.
As to `Cc1ccccc1NC(=S)NN1C(c2ccccc2)=C(c2ccccc2)OC1c1ccc(O)cc1` (configuration not stated), the MIC entry in [2], in test [4] and in test [6] was “inactive” throughout. Also, the MBC result in test [3], in [5] and in test [7] was “inactive” in each case. Besides, in [8], 50 µg/mL (≈ 104 µM) was the least that counted as inhibitory (MIC). The minimum bactericidal concentration (MBC) in test [9] stood at 100 µg/mL (≈ 209 µM). In addition, the Ratio in [13] came out at 2.
For `COc1ccc(C2OC(c3ccccc3)=C(c3ccccc3)N2NC(=S)Nc2ccccc2C)cc1` (configuration not stated), the MIC worked out at 30 µg/mL (≈ 60.8 µM) in test [2], 20 µg/mL (≈ 40.5 µM) in test [4] and 25 µg/mL (≈ 50.6 µM) in [8]. Further, the MBC in test [3] is 100 µg/mL (≈ 203 µM); in test [5] it was 50 µg/mL (≈ 101 µM); in test [9], 50 µg/mL (≈ 101 µM). Further, in [6], the MIC result was “inactive”. The MBC entry in [7] is “inactive”. Besides, the Ratio in test [10] is 3.3; in test [11] it was 2.5; in test [13], 2.
As to `COC1=CC(=O)C[C@@H](C)[C@]12Oc1c(Cl)c(OC)cc(OC)c1C2=O` [GRISEOFULVIN], in test [1], it took 20 µg/mL (≈ 56.7 µM) to inhibit growth (MIC).
Compound `COc1ccc(C2OC(c3ccccc3)=C(c3ccccc3)N2NC(=S)Nc2ccc(Cl)cc2)cc1` (configuration not stated) had an MIC in test [1] of 16 µg/mL (≈ 31.1 µM).
